Assay results: patent publication US20070015742A1, “Porphyrin derivatives” (priority 2003, published 2007)
Where two headings read alike, the source gives them in different places.

How the values were obtained:
[1] = molar extinction spectrum in THF; type: physicochemical
Text: The absorbance peaks and molar extinction coefficients are shown below in Table 2.
The Absorbance peaks and molar extinction coefficients are shown below in Table 3.
The absorbance peaks and molar extinction coefficients are shown below in Table 4.

[2] = tested on: mouse colon adenocarcinoma cell line Colo26; conditions: colo26 cells; for cell kill on irradiation: irradiation with 100 J cm^-2 white light; for photodynamic activity: 100 J cm^-2 white light
Experimental: Evaluation of in vitro Photodvnamic Tumour Cell Kill
The non-metastasing mouse colon adenocarcinoma cell line Colo26 was maintained in monolayer culture in RPMI 1640 glutamax medium supplemented with 10% heat-inactivated foetal calf serum, 100 U ml^−1 penicillin and 100 mg ml^−1 streptomycin. Cells grown to confluence were separated by trypsinisation to produce a suspension of 1.39 million cells per ml. A sample of 2.16 ml of this cell suspension was diluted to 50 ml with CM10 medium to give suspensions of 60,000 cells per ml. 100 μl of this suspension containing 6000 cells was added to each of the 60 inner wells of two 96-well culture plates. The outer wells of each plate were filled with sterile water. This was done to avoid errors resulting from the loss by evaporation of the rather small volumes of cell culture medium. The cells were incubated at 37° C. and 5% CO2 in a humidified incubator for 24 hours. A further 100 μl of cell culture medium containing a range of concentrations of each photosensitiser and tetrahydoflran (THF) vehicle was then added to groups of six wells. Tetrahydrofuran was chosen as solvent because it is relatively freely miscible with water and a pilot experiment had shown that incubation of cells for 48 hours with 0.5-1% THF had no effect on cell growth. An initial stock solution of 200 μl of each photosensitiser in THF was prepared and this solution used to prepare a series of sub-stock solutions in cell culture medium CM10 for addition to the tumour cell cultures.
After 20 hours of incubation with the cells, the medium containing the sensitiser and vehicle was removed and the cells washed once with buffer solution at 37° C. before the addition of fresh cell culture medium without photosensitiser or vrhicle. One of the two cell culture plates was then protected from light with aluminium foil and placed alongside the other plate which was irradiated with 100 joules cm^−2 of full-spectrum white light from an Applied Photophysics Irradiator. The light was delivered to the base of the 96-well plate through a glass platform (which served to filter short-wavelength ultraviolet light) as a 20 cm diameter spot. After irradiation both plates were returned to the incubator for a further 18 hours.
Cell growth inhibition following incubation with each photosensitiser and irradiation was determined using the European Union approved Neutral Red photocyiotoxicity protocol (Annexe II to Directive 2000/33/EC) adapted for visible light irradiation and the use of colo26 cells.

[3] = in toluene, reference standard whose quantum yield is known; cited from earlier work
[4] = concentrations of 0.5 μM and above

| SMILES | molar extinction coefficient ε ([1]; peak wavelength 418, THF) | molar extinction coefficient ε ([1]; peak wavelength 502, THF) | molar extinction coefficient ε ([1]; peak wavelength 532, THF) | molar extinction coefficient ε ([1]; peak wavelength 606, THF) | molar extinction coefficient ε ([1]; peak wavelength 668, THF) | cell kill on irradiation ([2]; 2 μM and above) | photodynamic activity [2] | cell kill on irradiation [2, 4] | molar extinction coefficient ε ([1]; peak wavelength 456, THF) | molar extinction coefficient ε ([1]; peak wavelength 537, THF) | molar extinction coefficient ε ([1]; peak wavelength 589, THF) | molar extinction coefficient ε ([1]; peak wavelength 659, THF) | molar extinction coefficient ε ([1]; peak wavelength 708, THF) | molar extinction coefficient ε ([1]; peak wavelength 724, THF) | singlet oxygen quantum yield of reference [3] |
| --- | --- | --- | --- | --- | --- | --- | --- | --- | --- | --- | --- | --- | --- | --- | --- |
| CCCCCCCCCCCCCCCCOc1ccc(C2=C3C=CC(=N3)C(c3ccccc3)=c3ccc([nH]3)=CC3=NC(=CC4=CC=C2S4)C=C3)cc1 [porphyrin (8), 5-(4-hexadecyloxyphenyl)-10-(phenyl)-15,20-H-21-thiaporphryin] | 300,000 1 mol^−1 cm^−1 | 29,800 1 mol^−1 cm^−1 | 5,300 1 mol^−1 cm^−1 | 4,900 1 mol^−1 cm^−1 | 3,000 1 mol^−1 cm^−1 | approaching total cell kill | photodynamic activity | substantial cell kill | – | – | – | – | – | – | – |
| CCCCCCCCCCCCCCCCOc1ccc(-c2c3nc(c(-c4ccccc4)c4ccc([nH]4)c(C#Cc4ccccn4)c4nc(c(C#Cc5ccccn5)c5ccc2s5)C=C4)C=C3)cc1 [porphyrin (10), 5-(4-hexadecyloxyphenyl)-10-(phenyl)-15,20-(2-ethynylpyridine)-21-thiaporphyrin] | – | – | – | – | – | approaching total cell kill | photodynamic activity | substantial cell kill | 378,985 1 mol^−1 cm^−1 | 24,330 1 mol^−1 cm^−1 | 40,385 1 mol^−1 cm^−1 | 6,335 1 mol^−1 cm^−1 | 11,635 1 mol^−1 cm^−1 | 13,320 1 mol^−1 cm^−1 | – |
| C=Cc1c(C)c2cc3nc(c4c5[n-]c(cc6nc(cc1[n-]2)C(C)=C6CC)c(C)c5C(=O)[C@@H]4C(=O)OC)[C@@H](CCC(=O)OC/C=C(\C)CCC[C@H](C)CCC[C@H](C)CCCC(C)C)[C@@H]3C.[Mg+2] [chlorophyll A] | – | – | – | – | – | – | – | – | – | – | – | – | – | – | 0.6 |
